Here are results for 23 molecules from ChEMBL document CHEMBL1134750, “Structure-activity relationship on the human EP3 prostanoid receptor by use of solid-support chemistry” (Bioorg Med Chem Lett, 2001).

The target of experiment [1] is T1, Prostaglandin E2 receptor EP3 subtype (Homo sapiens) (UniProt P43115).
T1 sequence (whole entry): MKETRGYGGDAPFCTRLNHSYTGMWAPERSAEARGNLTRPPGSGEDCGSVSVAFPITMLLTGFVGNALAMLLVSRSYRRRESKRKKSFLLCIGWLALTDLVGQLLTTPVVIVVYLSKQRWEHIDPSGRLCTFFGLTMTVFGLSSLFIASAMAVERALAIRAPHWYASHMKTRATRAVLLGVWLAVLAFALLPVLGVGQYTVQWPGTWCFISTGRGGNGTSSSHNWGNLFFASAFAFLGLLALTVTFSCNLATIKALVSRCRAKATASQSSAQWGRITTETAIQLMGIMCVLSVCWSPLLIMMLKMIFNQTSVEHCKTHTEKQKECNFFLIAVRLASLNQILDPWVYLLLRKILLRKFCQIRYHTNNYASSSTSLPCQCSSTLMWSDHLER
As to the kind of experiment: Residual binding of radiolabeled PGE-2 on the Prostanoid EP3 receptor at a concentration of 1 uM.

Experiment [2] has as its target Prostaglandin F2-alpha receptor (Homo sapiens, UniProt P43088). The experiment can be described thus: Antagonistic activity at Prostanoid FP receptor in human was determined. The experiment is classed as functional.
Experiment [3] concerns the target Prostaglandin E2 receptor EP2 subtype (Homo sapiens, UniProt P43116). As to the kind of experiment: Antagonistic activity at Prostanoid EP2 receptor in human was determined. The experiment is classed as functional.
In experiment [4] the target is T2, Prostaglandin E2 receptor EP3 subtype (Homo sapiens, UniProt P43115).
T2 sequence (P43115 whole entry): T1 sequence (whole entry)
The experiment can be described thus: Antagonistic activity at Prostanoid EP3 receptor in human was determined. The class given is functional.

Experiment [5] concerns the target T3, Prostaglandin D2 receptor (Homo sapiens, UniProt Q13258).
T3 sequence (Q13258 whole entry): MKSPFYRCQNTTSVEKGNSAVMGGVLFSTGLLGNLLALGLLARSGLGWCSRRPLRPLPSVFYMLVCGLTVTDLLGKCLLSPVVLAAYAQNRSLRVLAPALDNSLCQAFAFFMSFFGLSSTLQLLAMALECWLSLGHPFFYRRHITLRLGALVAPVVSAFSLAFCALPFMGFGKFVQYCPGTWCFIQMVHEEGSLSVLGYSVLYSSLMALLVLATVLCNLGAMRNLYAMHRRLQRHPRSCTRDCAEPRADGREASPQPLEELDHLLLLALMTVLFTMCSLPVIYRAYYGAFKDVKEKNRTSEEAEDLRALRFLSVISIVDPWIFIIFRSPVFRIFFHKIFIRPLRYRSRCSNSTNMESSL
The experiment can be described thus: Antagonistic activity at Prostanoid DP receptor in human was determined. The class given is functional.

Experiment [6] deals with Prostaglandin E2 receptor EP4 subtype (Homo sapiens, UniProt P35408). The experiment can be described thus: Antagonistic activity at Prostanoid EP4 receptor in human was determined. The class given is functional.
Experiment [7] concerns the target T4, Prostaglandin E2 receptor EP1 subtype (Homo sapiens, UniProt P34995).
T4 sequence (P34995 whole entry): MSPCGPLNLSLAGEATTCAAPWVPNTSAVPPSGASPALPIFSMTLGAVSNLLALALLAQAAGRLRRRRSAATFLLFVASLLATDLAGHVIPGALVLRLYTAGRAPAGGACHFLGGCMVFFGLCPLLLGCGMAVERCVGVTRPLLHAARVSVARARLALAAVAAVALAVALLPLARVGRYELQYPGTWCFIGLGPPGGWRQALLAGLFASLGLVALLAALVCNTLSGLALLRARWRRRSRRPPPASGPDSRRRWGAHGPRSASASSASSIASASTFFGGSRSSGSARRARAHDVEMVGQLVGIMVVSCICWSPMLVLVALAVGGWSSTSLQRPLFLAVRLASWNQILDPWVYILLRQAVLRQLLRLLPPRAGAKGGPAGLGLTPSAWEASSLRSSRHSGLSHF
The experiment can be described thus: Antagonistic activity at Prostanoid EP1 receptor in human was determined. The class given is functional.

For a further experiment, the target named is Prostacyclin receptor (Homo sapiens, UniProt P43119). As to the kind of experiment: Antagonistic activity at Prostanoid IP receptor in human was determined. The class given is functional.
Another experiment addresses T5, Thromboxane A2 receptor (Homo sapiens, UniProt P21731).
T5 sequence (P21731 whole entry): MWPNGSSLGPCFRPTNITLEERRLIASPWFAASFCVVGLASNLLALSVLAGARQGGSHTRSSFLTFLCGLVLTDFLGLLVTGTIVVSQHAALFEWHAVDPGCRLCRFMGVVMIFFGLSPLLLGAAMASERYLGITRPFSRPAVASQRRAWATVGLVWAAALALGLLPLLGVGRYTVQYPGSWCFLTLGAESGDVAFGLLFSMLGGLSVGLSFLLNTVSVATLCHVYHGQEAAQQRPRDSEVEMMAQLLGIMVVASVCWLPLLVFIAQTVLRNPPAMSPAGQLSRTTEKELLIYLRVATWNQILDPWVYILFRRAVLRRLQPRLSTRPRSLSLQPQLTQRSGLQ
As to the kind of experiment: Antagonistic activity at Thromboxane A2 receptor in human was determined. The class given is functional.

Prostaglandin E2 receptor EP2 subtype, sequence (P43116 whole entry): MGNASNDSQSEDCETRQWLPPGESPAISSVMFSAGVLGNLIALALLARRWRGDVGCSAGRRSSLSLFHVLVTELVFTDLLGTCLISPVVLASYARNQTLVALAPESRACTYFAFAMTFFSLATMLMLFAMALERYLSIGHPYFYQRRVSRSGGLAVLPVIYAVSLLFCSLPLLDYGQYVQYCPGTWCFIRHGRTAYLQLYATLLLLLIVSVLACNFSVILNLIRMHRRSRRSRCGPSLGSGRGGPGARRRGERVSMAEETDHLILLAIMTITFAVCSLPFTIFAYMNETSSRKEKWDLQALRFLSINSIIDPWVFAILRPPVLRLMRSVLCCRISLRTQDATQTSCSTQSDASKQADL
Prostacyclin receptor, sequence (P43119 whole entry): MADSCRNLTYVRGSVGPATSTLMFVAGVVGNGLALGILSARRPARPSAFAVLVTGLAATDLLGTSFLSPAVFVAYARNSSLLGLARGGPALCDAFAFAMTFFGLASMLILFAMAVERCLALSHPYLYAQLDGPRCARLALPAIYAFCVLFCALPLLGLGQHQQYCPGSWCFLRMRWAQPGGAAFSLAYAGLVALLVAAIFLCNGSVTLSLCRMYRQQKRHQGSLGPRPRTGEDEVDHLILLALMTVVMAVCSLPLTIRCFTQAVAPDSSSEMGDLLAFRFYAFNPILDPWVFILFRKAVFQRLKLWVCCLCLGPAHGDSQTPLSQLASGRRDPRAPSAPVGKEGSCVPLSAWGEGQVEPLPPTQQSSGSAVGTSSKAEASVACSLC
Prostaglandin F2-alpha receptor, sequence (P43088 whole entry): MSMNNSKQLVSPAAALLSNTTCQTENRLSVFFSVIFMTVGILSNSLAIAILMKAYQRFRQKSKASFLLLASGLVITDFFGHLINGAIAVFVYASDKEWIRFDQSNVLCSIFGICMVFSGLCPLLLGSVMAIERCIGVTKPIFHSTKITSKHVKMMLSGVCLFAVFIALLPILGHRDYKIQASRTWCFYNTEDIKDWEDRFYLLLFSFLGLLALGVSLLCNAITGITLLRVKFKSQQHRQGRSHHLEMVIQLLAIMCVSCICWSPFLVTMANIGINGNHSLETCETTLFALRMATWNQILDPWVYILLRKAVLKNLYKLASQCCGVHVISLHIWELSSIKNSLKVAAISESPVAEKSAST
Prostaglandin E2 receptor EP4 subtype, sequence (P35408 whole entry): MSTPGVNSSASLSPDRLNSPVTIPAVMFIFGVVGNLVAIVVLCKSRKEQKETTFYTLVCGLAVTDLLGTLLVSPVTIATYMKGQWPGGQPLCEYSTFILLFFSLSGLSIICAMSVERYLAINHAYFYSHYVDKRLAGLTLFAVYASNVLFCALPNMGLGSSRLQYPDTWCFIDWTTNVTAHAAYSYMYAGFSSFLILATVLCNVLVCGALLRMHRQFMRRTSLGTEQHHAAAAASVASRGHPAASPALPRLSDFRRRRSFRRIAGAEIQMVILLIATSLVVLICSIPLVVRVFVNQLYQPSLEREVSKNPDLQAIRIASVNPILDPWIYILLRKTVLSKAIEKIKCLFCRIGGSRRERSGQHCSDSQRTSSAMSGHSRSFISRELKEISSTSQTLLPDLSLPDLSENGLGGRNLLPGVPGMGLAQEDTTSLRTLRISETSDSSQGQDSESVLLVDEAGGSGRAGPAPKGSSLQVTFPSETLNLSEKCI

Molecule `OB(O)c1cccc2ccccc12` displayed a Residual binding in experiment [1] of 48%.

Take `OB(O)c1ccco1`: the Residual binding in experiment [1] worked out at 91%.

Consider `OB(O)c1ccc(Cl)c(Cl)c1`, for which the Residual binding in experiment [1] turned out to be 8%.

In turn, `CSc1ccc(B(O)O)cc1` had a Residual binding in [1] of 27%.

`OB(O)c1cccc(Cl)c1` yielded a Residual binding in [1] of 55%.

In experiment [1], `OB(O)c1cccc(C(F)(F)F)c1` gave a Residual binding of 54%.

Molecule `OB(O)c1cccc(CSCCc2ccccc2)c1` showed a Residual binding in experiment [1] of 52%.

`OB(O)c1ccc2ccccc2c1` yielded a Residual binding in experiment [1] of 5%.

Take `OCc1cccc(B(O)O)c1`: the Residual binding in experiment [1] stood at 84%.

Molecule `OB(O)c1ccccc1CSCCc1ccccc1` displayed a Residual binding in [1] of 68%.

Take `OB(O)c1ccsc1`: the Residual binding in experiment [1] worked out at 77%.

As to `COc1ccc(B(O)O)cc1OC`, the Residual binding in experiment [1] worked out at 84%.

Take `OB(O)c1ccccc1C(F)(F)F`: the Residual binding in [1] was found to be 89%.

Take `O=C(O)/C=C/c1ccccc1Cc1ccc2ccccc2c1`: the Ki in experiment [2] was 69 µM; in experiment [3], 12 µM; in experiment [4] it was 20 nM; in [5] it was 530 nM; in [6], 3.1 µM; in [7] it was > 100 µM. Moreover, the values for the Ki at Prostacyclin receptor and on Thromboxane A2 receptor were > 100 µM and 10000 nM, respectively.

The molecule `CC(C)(C)NS(=O)(=O)c1ccc(B(O)O)cc1` came in with a Residual binding in experiment [1] of 100%.

With `OB(O)c1cc2ccccc2o1`, the Residual binding in [1] is 61%.

Consider `O=C(O)/C=C/c1ccccc1Cc1ccc(Cl)c(Cl)c1`, for which the Ki in experiment [2] turned out to be 41 µM; in [3], 13 µM; in experiment [4], 32 nM; in experiment [5] it was 2400 nM; in experiment [6] it was 10 µM; in experiment [7], 63 µM. The Ki on Prostacyclin receptor was 37 µM; at Thromboxane A2 receptor, 900 nM.

`COc1ccccc1B(O)O` registered a Residual binding in experiment [1] of 93%.

`CSc1ccc(Cc2ccccc2/C=C/C(=O)O)cc1`: the Ki was > 83 µM in experiment [2]; 43 µM in [3]; 80 nM in experiment [4]; 4100 nM in experiment [5]; > 50 µM in [6]; > 100 µM in experiment [7]. Also, the Ki on Prostacyclin receptor was > 76 µM; on Thromboxane A2 receptor it was 4600 nM.

`OB(O)c1ccc(Cl)cc1Cl` displayed a Residual binding in [1] of 25%.

With `CSc1ccccc1B(O)O`, in experiment [1], the Residual binding worked out at 96%.

`OB(O)c1cccs1` yielded a Residual binding in experiment [1] of 74%.

Regarding `O=C(O)/C=C/c1ccccc1Cc1ccc(Cl)cc1Cl`, the Ki in [2] is 63 µM; in experiment [3], 4.1 µM; in [4], 110 nM; in experiment [5], 2500 nM; in experiment [6], > 40 µM; in experiment [7], > 100 µM. For the same molecule, the Ki came out at 31 µM at Prostacyclin receptor and 520 nM at Thromboxane A2 receptor.
